From US20210253518A1, “KINASE INHIBITOR” (NISSAN CHEMICAL CORPORATION, priority 2018, published 2021)

Columns and labels:
LATS2 = target: T1, LATS2 (Homo sapiens, UniProt Q9NRM7); assay: Kinase Assay method (Fluorospark Kinase/ADP Multi-Assay Kit); assay type: biochemical
T1 construct: purchased Carna Biosciences
T1 sequence (Q9NRM7 553-1088 limits assumed): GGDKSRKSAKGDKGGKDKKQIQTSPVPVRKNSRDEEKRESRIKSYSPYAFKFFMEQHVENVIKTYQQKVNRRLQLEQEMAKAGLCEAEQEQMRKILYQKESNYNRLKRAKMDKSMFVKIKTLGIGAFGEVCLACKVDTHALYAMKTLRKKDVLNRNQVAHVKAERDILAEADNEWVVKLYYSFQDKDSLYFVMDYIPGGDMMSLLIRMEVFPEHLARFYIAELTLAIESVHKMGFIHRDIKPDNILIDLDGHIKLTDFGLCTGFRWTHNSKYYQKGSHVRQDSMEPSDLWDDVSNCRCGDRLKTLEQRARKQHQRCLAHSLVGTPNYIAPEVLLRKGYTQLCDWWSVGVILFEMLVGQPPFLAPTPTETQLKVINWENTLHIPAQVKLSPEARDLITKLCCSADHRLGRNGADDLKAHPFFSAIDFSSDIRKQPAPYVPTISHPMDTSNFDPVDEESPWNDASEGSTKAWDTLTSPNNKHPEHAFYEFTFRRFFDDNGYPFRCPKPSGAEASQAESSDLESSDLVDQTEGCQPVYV
Description: (§1) For compound k-1:B-1 (racemate), GA-002A, GA-002B, GA-005A and GA-005B, inhibitory activity evaluation (calculation of IC50) was performed on LATS1 and LATS2 (manufactured by Carna Biosciences). The activity was measured using the Kinase Assay method described below. The compounds were added such that the test concentration of k-1:B-1 (racemate), GA-002A, GA-002B, GA-005A and GA-005B was in 8 steps (10 μM, 1 μM, 100 nM, […], 10 nM, 3 nM, 1 nM, 0.3 nM) from the final concentration of 10 μM to 0.3 nM.
(§2) As the analysis method of the data, the mean signal of the control well containing reaction components other than the evaluation compound was set to 0% inhibition, the mean signal without enzyme addition was set to 100% inhibition, and the inhibition rate was calculated from the mean signal of 2 wells of each test substance test. IC50 value was calculated using EXSUS (version 7.1.6, manufactured by CAC EXICARE Corporation).
(§3) 2 μL of a compound of the present invention solution at 2.5-fold concentration, 1 μL of substrate at 5-fold concentration (SGKtide: NH2—CKKRNRRLSVA-COOH, manufactured by SignalChem), ATP (manufactured by Sigma-Aldrich), MgCl2 (manufactured by FUJIFILM Wako Pure Chemical Corporation) solution (final concentration 10 μM, 400 μM or 5 mM), and 2 μL of kinase solution at 2.5-fold concentration (final concentration of LATS1 or LATS2 5 μg/mL), each prepared with assay buffer (20 mM HEPES, 0.01% Triton X-100, 2 mM DTT, pH 7.5), were mixed in the wells of a polypropylene 384-well plate (manufactured by Greiner Bio-One, #784900) and reacted at room temperature for 5 hr. Successively, 5 μL detection solution (Fluorospark (registered trade mark)Kinase/ADP Multi-Assay Kit; manufactured by FUJIFILM Wako Pure Chemical Corporation) was added, and the mixture was reacted at room temperature 30 min. Successively, 5 μL of a reaction quenching liquid (Fluorospark (registered trade mark) Kinase/ADP Multi-Assay Kit; manufactured by FUJIFILM Wako Pure Chemical Corporation) was added to discontinue the reaction. Thereafter, the ADP concentration of the reaction solution was quantified by EnSpire (manufactured by PerkinElmer) to detect the kinase reaction.

LATS1 = target: T2, LATS1 (Homo sapiens, UniProt O95835); assay: as above; assay type: biochemical
T2 construct: purchased Carna Biosciences
T2 sequence (O95835 589-1130 limits assumed): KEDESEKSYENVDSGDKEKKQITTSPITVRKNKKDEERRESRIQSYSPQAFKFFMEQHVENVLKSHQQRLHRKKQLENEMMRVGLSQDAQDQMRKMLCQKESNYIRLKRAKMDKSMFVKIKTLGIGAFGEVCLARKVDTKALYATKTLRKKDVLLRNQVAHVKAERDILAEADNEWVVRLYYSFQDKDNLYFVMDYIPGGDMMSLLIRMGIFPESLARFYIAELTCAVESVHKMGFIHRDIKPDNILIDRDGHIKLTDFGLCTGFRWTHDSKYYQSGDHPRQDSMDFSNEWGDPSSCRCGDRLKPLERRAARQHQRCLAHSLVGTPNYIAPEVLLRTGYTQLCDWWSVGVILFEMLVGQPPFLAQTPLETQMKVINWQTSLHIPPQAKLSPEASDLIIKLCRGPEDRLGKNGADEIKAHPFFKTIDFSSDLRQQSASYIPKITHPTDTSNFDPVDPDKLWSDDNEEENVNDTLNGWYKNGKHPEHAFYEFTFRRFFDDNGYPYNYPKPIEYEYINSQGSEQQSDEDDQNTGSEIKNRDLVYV
Description: as §1, §2, §3

[1] = system: YAP (phospho-S127 and total); assay: YAP phosphorylation inhibitory action in SKOV3 cells (HTRF, YAP-total kit / YAP phospho-S127 kit); assay type: cell-based, human; details: 10 μM, 1 hr, Non-treatment as 100%
Description: Human ovarian cancer cell line SKOV3 (manufactured by DS Pharma Biomedical Co., Ltd) was precultured (single layer culture) in a 15% FBS-containing McCoy's 5a medium (manufactured by Sigma Ltd. Aldrich). The above-mentioned cells in the logarithmic growth phase were washed with PBS, a 0.25% (w/v) trypsin-1 mmol/L ethylenediaminetetraacetic acid (EDTA) solution (manufactured by Fujifilm Wako Pure Chemical Corporation) was added, and adherent cells were detached by incubating at 37° C. for 3 min. The above-mentioned medium was added and the mixture was centrifuged and resuspended in the same medium.
According to the method of patent document (WO 2014/017513), a composition of 10% FBS-containing DMEM medium (Phenol-red free, manufactured by FUJIFILM Wako Pure Chemical Corporation) containing 0.015% (w/v) deacylated gellan gum (KELCOGEL CG-LA, manufactured by SANSHO Co., Ltd.) was prepared using FCeM-series Preparation Kit (manufactured by FUJIFILM Wako Pure Chemical Corporation). Then, various cells prepared above were suspended in the above-mentioned medium composition (3D conditions) added with deacylated gellan gum or a medium without the addition (2D conditions), and seeded on a 50 μL/well (manufactured by Corning Incorporated, 96 well flat bottom plate, #3585, 2D conditions) or 25 μL/well (manufactured by Corning Incorporated, 96 well low adhesion flat bottom plate, #3474) at 100000 cells/well. The plate was allowed to stand at 37° C. in a 5% CO2 incubator, and the compound of the present invention diluted with the medium at 2 or 6 times the final concentration, DMSO, or the medium alone was added to the plate 3 hr after the seeding at 50 μL/well (2D conditions) or 5 μL/well (3D conditions) to make the final concentration of each compound 10 μM. After culture at 37° C. in a 5% CO2 incubator for 1 hr, the supernatant was aspirated, supplemented Lysis buffer (1-fold concentration, manufactured by Cisbio, YAP-total kit or YAP phospho-S127 kit) (50 μL) was added under 2D conditions, and supplemented Lysys buffer (4-fold concentration) (10 μL) was added to the culture supernatant under 3D conditions, and the mixture was stirred by a plate shaker for 30 min. Thereafter, the plate was centrifuged, 16 μL of the supernatant was transferred to a 384-well white plate (Corning, #4512), and each antibody solution (pYAP d2 antibody or Total-YAP d2 antibody, and pYAP Cryptate antibody or Total-YAP Cryptate antibody) included in the kit was added at 4 μL/well in total, and the mixture was allowed to stand at room temperature overnight. As a blank control, pYAP Cryptate antibody or Total-YAP Cryptate antibody alone was added to cells free of stimulation with compound and the mixture was treated in the same manner (Non-treatment). The next day, the wavelengths at 665 nm and 615 nm were measured in the HTRF mode of EnVision (manufactured by PerkinElmer).
The obtained signal was calculated as follows. Ratio=signal (665 nm)/signal (615 nm)×10000, ΔR=Signal(Ratio)−Background fluorescence, and the relative value with respect to ΔR of the compound non-addition group (Non-treatment) as 100% was calculated, and the phosphorylated YAP amount or total YAP amount by each compound was evaluated.

[2] = Kinase Assay method, 8 steps 10 μM to 0.3 nM

inhibition at 0.1 µM (LATS2; 100 nM, read-out: LARS2 inhibitory rate (%)): 99%
inhibition at 1 µM (LATS2; 1000 nM, read-out: LARS2 inhibitory rate (%)): 100%
IC50 (LATS2; [2]): 7.39 nM
inhibition at 0.1 µM (LATS1; 100 nM, read-out: LARS1 inhibitory rate (%)): 96%
inhibition at 1 µM (LATS1; 1000 nM, read-out: LARS1 inhibitory rate (%)): 97%
IC50 (LATS1; [2]): 4.79 nM
Compound: CC/C(=N\NC(=O)[C@@H](C)Nc1cccc(O)c1)c1ccc(O)c(C)c1O [GA-005A]
phosphorylated YAP (%) ([1]; 2D condition): 10%
total YAP (%) ([1]; 2D condition): 91%
phosphorylated YAP (%) ([1]; 3D condition): 10%
total YAP (%) ([1]; 3D condition): 107%
